{
  "source": "patent US20250197420A1",
  "about": "“MACROCYCLIC COMPOUNDS, COMPOSITIONS, AND METHODS OF USING THEREOF” (Sionna Therapeutics Inc., priority 2022, published 2025)",
  "key": {"[1]": {"biological_target": "T1, Purified recombinant NBD1 (Homo sapiens, UniProt P13569)", "T1 construct": "Purified recombinant NBD1 was produced using previously described methods; made in house", "T1 sequence (P13569 423-646 limits assumed)": "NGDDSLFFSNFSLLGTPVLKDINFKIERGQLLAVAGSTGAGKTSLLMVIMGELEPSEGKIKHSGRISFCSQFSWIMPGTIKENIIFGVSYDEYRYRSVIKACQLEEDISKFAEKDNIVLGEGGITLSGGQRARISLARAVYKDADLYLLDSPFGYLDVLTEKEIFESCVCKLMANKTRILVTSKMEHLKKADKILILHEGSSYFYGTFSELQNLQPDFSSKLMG", "assay": "Aggregation analysis using differential static light scattering (DSLS): thermal stability of NBD1", "format": "binding", "details": "NBD1 0.2 mg/ml; Tagg of compound well minus average Tagg of DMSO control wells", "summary_of_the_method": "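Recombinant NBD1 at 0.2 mg/ml in Tris/NaCl/MgCl2 buffer with 2 mM ATP, 2 mM DTT, 1% glycerol, pH 7.6, was incubated with compound and heated at 1 °C/min to 70 °C while static light scattering was monitored. Tagg was taken from the curve inflection point and reported as ΔTagg relative to DMSO controls.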"}, "[2]": {"test_system": "Primary human bronchial epithelial cells from a ΔF508 homozygous CF donor (CF-HBE cells)", "assay": "TECC24 recording of CFTR-mediated transepithelial chloride transport, AUC fold over benchmark VX-809 @10 μM", "format": "cell-based", "details": "48 hours incubation, AUC of forskolin-stimulated IEQ", "summary_of_the_method": "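CF-HBE cells on inserts were treated with compound for 48 h at 36.5 °C, then recorded in current-clamp with benzamil 10 μM, forskolin 10 μM, and finally CFTR inhibitor-172 20 μM in pH 7.4 Hepes saline. Equivalent Cl− current AUC between forskolin and inhibitor addition is expressed as a ratio to VX-809 AUC: A <3, B 3–6, C 6–20.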"}},
  "data": [
    {"smiles": "CC1(C)CCCCC(C)(c2cccc(CCC(=O)O)c2)c2cnc([nH]2)-c2cc(ccc2F)Oc2c(F)cc3[nH]ccc3c2CCC(=O)NC1", "note": "(single isomer, unassigned) [Compound 46A, 3-[3-(24,30-difluoro-6,11,11-trimethyl-14-oxo-26-oxa-3,13,21,32-tetrazapentacyclo[25.3.1.12,5.017,25.018,22]dotriaconta-1(30),2,4,17(25),18(22),19,23,27(31),28-nonaen-6-yl)phenyl]propanoic acid]", "values": [
      {"measurement": "DSLS (ΔTagg)", "setting": "[1]", "result": "A (an ΔTagg value less than or equal to 5 °C is marked “A”)"},
      {"measurement": "TECC (test agent AUC divided by VX-809 AUC)", "setting": "[2]", "result": "A (a TECC value less than 3 is marked “A”)"}
    ]},
    {"smiles": "CC1(C)CCOCC(c2cccc(CCC(=O)O)c2)n2ccc(n2)-c2cc(ccc2F)Oc2c(F)cc3[nH]ccc3c2COC(=O)N1", "note": "(single isomer, unassigned) [Compound 96B, 3-[3-(23,29-difluoro-11,11-dimethyl-13-oxo-8,14,25-trioxa-5,12,20,31-tetrazapentacyclo[24.3.1.12,5.016,24.017,21]hentriaconta-1(30),2(31),3,16,18,21,23,26,28-nonaen-6-yl)phenyl]propanoic acid]", "values": [
      {"measurement": "DSLS (ΔTagg)", "setting": "[1]", "result": "C (a value greater than 10 °C and less than or equal to 25 °C is marked “C”)"},
      {"measurement": "TECC (test agent AUC divided by VX-809 AUC)", "setting": "[2]", "result": "C (a value between 6 and 20 is marked “C”)"}
    ]},
    {"smiles": "CN1CCCCC(C)(c2cccc(CCC(=O)O)c2)c2cnc([nH]2)-c2cc(ccc2F)Oc2c(F)cc3[nH]ccc3c2CC1=O", "note": "(stereo not drawn) [Compound 68, 3-[3-(21,27-Difluoro-6,11-dimethyl-12-oxo-23-oxa-3,11,18,29-tetrazapentacyclo[22.3.1.12,5.014,22.015,19]nonacosa-1(28),2,4,14,16,19,21,24,26-nonaen-6-yl)phenyl]propanoic acid]", "values": [
      {"measurement": "DSLS (ΔTagg)", "setting": "[1]", "result": "B (a value above 5 °C and less than or equal to 10 °C is marked “B”)"},
      {"measurement": "TECC (test agent AUC divided by VX-809 AUC)", "setting": "[2]", "result": "A (a TECC value less than 3 is marked “A”)"}
    ]},
    {"smiles": "CN1CC(C)(C)CCCC(c2ccccc2)n2ccc(n2)-c2cc(ccc2F)Oc2c(F)cc3[nH]ccc3c2CCC1=O", "note": "(stereo not drawn) [Compound 39, 23,29-difluoro-10,10,12-trimethyl-6-phenyl-25-oxa-5,12,20,31-tetrazapentacyclo[24.3.1.12,5.016,24.017,21]hentriaconta-1(30),2(31),3,16,18,21,23,26,28-nonaen-13-one]", "values": [
      {"measurement": "DSLS (ΔTagg)", "setting": "[1]", "result": "A (an ΔTagg value less than or equal to 5 °C is marked “A”)"},
      {"measurement": "TECC (test agent AUC divided by VX-809 AUC)", "setting": "[2]", "result": "A (a TECC value less than 3 is marked “A”)"}
    ]},
    {"smiles": "CC1(c2cccc(CCC(=O)O)c2)CCCC(=O)CNC(=O)CCc2c(c(F)cc3[nH]ccc23)Oc2ccc(F)c(c2)-c2ncc1[nH]2", "note": "(stereo not drawn) [Compound 107, 3-[3-(23,29-Difluoro-6-methyl-10,13-dioxo-25-oxa-3,12,20,31-tetrazapentacyclo[24.3.1.12,5.016,24.017,21]hentriaconta-1(30),2,4,16,18,21,23,26,28-nonaen-6-yl)phenyl]propanoic acid]", "values": [
      {"measurement": "DSLS (ΔTagg)", "setting": "[1]", "result": "C (a value greater than 10 °C and less than or equal to 25 °C is marked “C”)"},
      {"measurement": "TECC (test agent AUC divided by VX-809 AUC)", "setting": "[2]", "result": "B (a value between 3 and 6 is marked “B”)"}
    ]},
    {"smiles": "CN1CC(C)(C)CCCC(C)(c2cccc(CCC(=O)O)c2)c2cnc([nH]2)-c2cc(ccc2F)Oc2c(F)cc3[nH]cnc3c2CCC1=O", "note": "(single isomer, unassigned) [Compound 72A, 3-[3-(23,29-difluoro-6,10,10,12-tetramethyl-13-oxo-25-oxa-3,12,18,20,31-pentazapentacyclo-[24.3.1.12,5.016,24.017,21]hentriaconta-1(30),2,4,16,18,21,23,26,28-nonaen-6-yl)phenyl]propanoic acid]", "values": [
      {"measurement": "DSLS (ΔTagg)", "setting": "[1]", "result": "A (an ΔTagg value less than or equal to 5 °C is marked “A”)"},
      {"measurement": "TECC (test agent AUC divided by VX-809 AUC)", "setting": "[2]", "result": "A (a TECC value less than 3 is marked “A”)"}
    ]},
    {"smiles": "CN1CC(C)(C)COCC(C)(c2cccc(CCC(=O)O)c2)c2cnc([nH]2)-c2cc(ccc2F)Oc2c(F)cc3[nH]ccc3c2CCC1=O", "note": "(single isomer, unassigned) [Compound 20B, 3-[3-(23,29-Difluoro-6,10,10,12-tetramethyl-13-oxo-8,25-dioxa-3,12,20,31-tetrazapentacyclo[24.3.1.12,5.016,24.017,21]hentriaconta-1(30),2,4,16,18,21,23,26,28-nonaen-6-yl)phenyl]propanoic acid]", "values": [
      {"measurement": "DSLS (ΔTagg)", "setting": "[1]", "result": "A (an ΔTagg value less than or equal to 5 °C is marked “A”)"},
      {"measurement": "TECC (test agent AUC divided by VX-809 AUC)", "setting": "[2]", "result": "A (a TECC value less than 3 is marked “A”)"}
    ]},
    {"smiles": "CCOC(=O)Cc1cccc(C2(C)CCCC(C)(C)CN(C)C(=O)CCc3c(c(F)cc4[nH]ccc34)Oc3ccc(F)c(c3)-c3ncc2[nH]3)c1", "note": "(single isomer, unassigned) [Compound 64B, ethyl 2-[3-(23,29-difluoro-6,10,10,12-tetramethyl-13-oxo-25-oxa-3,12,20,31-tetrazapentacyclo-[24.3.1.12,5.016,24.017,21]hentriaconta-1(30),2,4,16,18,21,23,26,28-nonaen-6-yl)phenyl]acetate]", "values": [
      {"measurement": "DSLS (ΔTagg)", "setting": "[1]", "result": "A (an ΔTagg value less than or equal to 5 °C is marked “A”)"},
      {"measurement": "TECC (test agent AUC divided by VX-809 AUC)", "setting": "[2]", "result": "B (a value between 3 and 6 is marked “B”)"}
    ]},
    {"smiles": "[2H]C([2H])([2H])n1nc2nc1-c1cc(ccc1F)Oc1c(F)cc3[nH]ccc3c1CCC(=O)N(C)CC(C)(C)CCCC2(C)c1cccc(CCC(=O)O)c1", "note": "(single isomer, unassigned) [Compound 77A, 3-[3-[23,29-difluoro-6,10,10,12-tetramethyl-13-oxo-3-(trideuteriomethyl)-25-oxa-3,4,12,20,31-pentazapentacyclo[24.3.1.12,5.016,24.017,21]-hentriaconta-1(30),2(31),4,16,18,21,23,26,28-nonaen-6-yl]phenyl]propanoic acid]", "values": [
      {"measurement": "DSLS (ΔTagg)", "setting": "[1]", "result": "C (a value greater than 10 °C and less than or equal to 25 °C is marked “C”)"},
      {"measurement": "TECC (test agent AUC divided by VX-809 AUC)", "setting": "[2]", "result": "C (a value between 6 and 20 is marked “C”)"}
    ]},
    {"smiles": "Cn1nc2nc1-c1cc(ccc1F)Oc1c(F)cc3[nH]ccc3c1COC(=O)NC(C)(C)COCCC2(C)c1cccc(CCC(=O)O)c1", "note": "(single isomer, unassigned) [Compound 100A, 3-[3-(23,29-difluoro-3,6,11,11-tetramethyl-13-oxo-9,14,25-trioxa-3,4,12,20,31-pentazapentacyclo-[24.3.1.12,5.016,24.017,21]hentriaconta-1(30),2(31),4,16,18,21,23,26,28-nonaen-6-yl)phenyl]propanoic acid]", "values": [
      {"measurement": "DSLS (ΔTagg)", "setting": "[1]", "result": "C (a value greater than 10 °C and less than or equal to 25 °C is marked “C”)"},
      {"measurement": "TECC (test agent AUC divided by VX-809 AUC)", "setting": "[2]", "result": "C (a value between 6 and 20 is marked “C”)"}
    ]},
    {"smiles": "O=C(O)CCc1cccc(C2CCCNC(=O)CCc3c(c(F)cc4[nH]ccc34)Oc3ccc(F)c(c3)-c3ncc2[nH]3)c1", "note": "(stereo not drawn) [Compound 8, 3-[3-(21,27-Difluoro-11-oxo-23-oxa-3,10,18,29-tetrazapentacyclo[22.3.1.12,5.014,22.015,19]nonacosa-1(28),2,4,14,16,19,21,24,26-nonaen-6-yl)phenyl]propanoic acid]", "values": [
      {"measurement": "DSLS (ΔTagg)", "setting": "[1]", "result": "C (a value greater than 10 °C and less than or equal to 25 °C is marked “C”)"},
      {"measurement": "TECC (test agent AUC divided by VX-809 AUC)", "setting": "[2]", "result": "A (a TECC value less than 3 is marked “A”)"}
    ]},
    {"smiles": "[2H]C([2H])([2H])n1nc2nc1-c1cc(ccc1F)Oc1c(F)cc3[nH]ccc3c1CCC(=O)NCC(C)(C)CCCC2(C)c1cccc(CCC(=O)O)c1", "note": "(single isomer, unassigned) [Compound 76B, 3-[3-[23,29-difluoro-6,10,10-trimethyl-13-oxo-3-(trideuteriomethyl)-25-oxa-3,4,12,20,31-pentazapentacyclo[24.3.1.12,5.016,24.017,21]hentriaconta-1(30),2(31),4,16,18,21,23,26,28-nonaen-6-yl]phenyl]propanoic acid]", "values": [
      {"measurement": "DSLS (ΔTagg)", "setting": "[1]", "result": "C (a value greater than 10 °C and less than or equal to 25 °C is marked “C”)"},
      {"measurement": "TECC (test agent AUC divided by VX-809 AUC)", "setting": "[2]", "result": "C (a value between 6 and 20 is marked “C”)"}
    ]},
    {"smiles": "CC1(C)CCCCC(C)(c2cccc(CCC(=O)O)c2)c2cnc([nH]2)-c2cc(ccc2F)Oc2c(F)cc3[nH]ccc3c2CCC(=O)NC1", "note": "(single isomer, unassigned) [Compound 46B, 3-[3-(24,30-difluoro-6,11,11-trimethyl-14-oxo-26-oxa-3,13,21,32-tetrazapentacyclo[25.3.1.12,5.017,25.018,22]dotriaconta-1(30),2,4,17(25),18(22),19,23,27(31),28-nonaen-6-yl)phenyl]propanoic acid]", "values": [
      {"measurement": "DSLS (ΔTagg)", "setting": "[1]", "result": "C (a value greater than 10 °C and less than or equal to 25 °C is marked “C”)"},
      {"measurement": "TECC (test agent AUC divided by VX-809 AUC)", "setting": "[2]", "result": "A (a TECC value less than 3 is marked “A”)"}
    ]},
    {"smiles": "CC1(c2cccc(CCC(=O)O)c2)CNC(=O)OCCCCc2c(c(F)cc3[nH]ccc23)Oc2ccc(F)c(c2)-c2ncc1[nH]2", "note": "(stereo not drawn) [Compound 83, 3-[3-(22,28-Difluoro-6-methyl-9-oxo-10,24-dioxa-3,8,19,30-tetrazapentacyclo[23.3.1.12,5.015,23.016,20]triaconta-1(29),2,4,15,17,20,22,25,27-nonaen-6-yl)phenyl]propanoic acid]", "values": [
      {"measurement": "DSLS (ΔTagg)", "setting": "[1]", "result": "A (an ΔTagg value less than or equal to 5 °C is marked “A”)"},
      {"measurement": "TECC (test agent AUC divided by VX-809 AUC)", "setting": "[2]", "result": "A (a TECC value less than 3 is marked “A”)"}
    ]},
    {"smiles": "CC1(c2cccc(CCC(=O)O)c2)CCCCCC(O)CNC(=O)Cc2c(c(F)cc3[nH]ccc23)Oc2ccc(F)c(c2)-c2ncc1[nH]2", "note": "(stereo not drawn) [Compound 108, 3-[3-(24,30-Difluoro-12-hydroxy-6-methyl-15-oxo-26-oxa-3,14,21,32-tetrazapentacyclo[25.3.1.12,5.017,25.018,22]dotriaconta-1(31),2,4,17,19,22,24,27,29-nonaen-6-yl)phenyl]propanoic acid]", "values": [
      {"measurement": "DSLS (ΔTagg)", "setting": "[1]", "result": "C (a value greater than 10 °C and less than or equal to 25 °C is marked “C”)"},
      {"measurement": "TECC (test agent AUC divided by VX-809 AUC)", "setting": "[2]", "result": "A (a TECC value less than 3 is marked “A”)"}
    ]}
  ]
}
